The structures appear in SMILES notation. “And” between values parts separate entries of the source, which are not always exact repeats. Equal entries are not always repeated.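 These data come from cells grown in 96-well plates and exposed to compound for 48 hours at five concentrations. GI50 = concentration required for 50% inhibition of growth. The concentration for full growth arrest is given as TGI.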

Test in all cases: NCI tumour cell line growth inhibition, 48 h
Assay [1] concerns SK-MEL-5 melanoma.
The test system of assay [2] is SR leukemia.
Assay [3] has as its system SK-MEL-2 melanoma.
The test system of assay [4] is PC-3 prostate.
Assay [5] relates to SN12C renal.
For assay [6], the system named is HS 578T breast.
Assay [7] relates to SK-MEL-28 melanoma.
Assay [8] relates to 786-0 renal.
Assay [9] relates to OVCAR-8 ovarian.
The test system of assay [10] is NCI-H522 lung.

With `CN1CCc2c(Sc3ccc(C(=O)NO)cc3)c3ccccc3n2C1`, the GI50 was 2.39 µM in assay [1]; 2.69 µM in [2]; 2.01 µM in assay [3]; 1.63 µM in assay [4]; 2.61 µM in assay [5]; 2.64 µM in assay [6]. Also, the GI50 is 1.58 µM in assay [7], 4.12 µM in assay [8], 1.69 µM in assay [9] and 1.14 µM in assay [10]. For the same compound, the TGI in assay [1] worked out at 6.67 µM; in assay [2], 9.92 µM; in assay [3], 4.55 µM; in assay [4], 4.01 µM; in [5], 9.78 µM; in assay [6], 27 µM. The TGI in assay [7] was 3.98 µM; in assay [8], 15.3 µM; in [9], 5.42 µM; in [10], 2.62 µM.

Take `Cc1sc2nc(NCCc3c[nH]c4ccc(Cl)cc34)[nH]c(=O)c2c1C`: the GI50 was 1.98 µM in assay [1]; 1.81 µM in [2]; 2.62 µM in assay [3]; 2.05 µM in assay [4]; 2.38 µM in assay [5]; 1.86 µM in assay [6]. The GI50 in [7] was 4.08 µM; in [8], 2.39 µM; in [9], 2.12 µM; in assay [10], 1.79 µM. Besides, the TGI in assay [1] was found to be 3.88 µM; in assay [2], 8.52 µM; in assay [3], 9.29 µM; in [4], 8.91 µM; in [5], 6.59 µM; in assay [6] it was 6.25 µM. For the same compound, the TGI in assay [7] was 15.7 µM; in assay [8], 6.23 µM; in [9], 5.69 µM; in assay [10], 3.91 µM.

Take `CCOC(=O)N1CCN(C(=O)c2ccc(C(F)(F)F)nc2Nc2cc(Cl)ccc2C)CC1`: the GI50 was 10.1 µM in assay [1]; 7.74 µM in assay [2]; 22.3 µM in [3]; 7.71 µM in assay [4]; 36.8 µM in [5]; 23.9 µM in [6]. Further, the GI50 in [7] was 26.1 µM; in assay [8] it was 41.1 µM; in assay [9], 30.2 µM; in assay [10], 4.43 µM. In addition, the TGI was 23.2 µM in assay [1]; 65.7 µM in [2]; 72.9 µM in assay [3]; > 100 µM in assay [4]; > 100 µM in assay [5]; 91.2 µM in assay [6]. Further, the TGI is 96 µM in [7], > 100 µM in assay [8], > 100 µM in [9] and 27.4 µM in [10].

Consider `COC(=O)[C@@H](NC(=O)[C@@H](OC)[C@@H]1Cc2cc3cc(OC4CC(OC5CC(O)C(O)C(C)O5)C(O)C(C)O4)c(C)c(O)c3c(O)c2C(=O)[C@H]1OC1CC(OC2CC(OC3CC(C)(O)C(O)C(C)O3)C(O)C(C)O2)C(O)C(C)O1)C(C)C` (some centres undefined), for which the GI50 in assay [1] was 0.0727 µM; in assay [2], 0.0174 µM; in assay [3], 0.194 µM; in assay [4], 0.149 µM; in assay [5], 0.145 µM; in assay [6], 0.114 µM. Moreover, the GI50 in assay [7] is 0.0971 µM; in [8] it was 0.175 µM; in assay [9], 0.15 µM; in assay [10], 0.112 µM. In addition, the TGI in assay [1] was 0.408 µM; in assay [2] it was 5.08 µM; in assay [3], 7.94 µM; in [4] it was > 32.5 µM; in assay [5], > 32.5 µM; in assay [6], 1.39 µM. The TGI is 6.04 µM in assay [7], 5.98 µM in assay [8], > 32.5 µM in assay [9] and 2.02 µM in [10].

In the case of `Fc1ccc(Nc2cc(-n3nnc4ccccc43)nc3ccccc23)cc1`, the GI50 in assay [1] was 32.2 µM; in assay [2], > 100 µM; in assay [3] it was 98.8 µM; in assay [4], 20.3 µM; in assay [5], 30 µM; in assay [6], 18.2 µM. Moreover, the GI50 in [7] is > 56.2 µM; in [8] it was 13.1 µM; in [9] it was 22.2 µM; in assay [10], 66.3 µM. For the same compound, the TGI in assay [1] was > 100 µM; in assay [2], > 100 µM; in [3], > 100 µM; in [4], > 100 µM; in [5], > 69.3 µM; in assay [6], > 68.7 µM. Further, the TGI in assay [7] is > 100 µM; in assay [8], > 49.9 µM; in assay [9] it was > 79 µM; in assay [10], > 100 µM.

As for `Cc1cc(NC(=O)c2ccc(C)c(Nc3nccc(-c4cccnc4)n3)c2)cc(-n2cnc(C)c2)c1`, the GI50 in [1] is 5.04 µM; in assay [2], 2.46 µM; in assay [3], 5.03 µM; in assay [4], 4.76 µM; in [5] it was 0.005 µM; in [6], 0.0847 µM. Moreover, the GI50 in [7] is 1.71 µM; in [8], 1.56 µM; in [9], 4.27 µM; in assay [10], 4.89 µM. Also, the TGI in assay [1] turned out to be 12.7 µM; in assay [2] it was 11.8 µM; in [3], 12.9 µM; in assay [4], 17.3 µM; in [5] it was 12.8 µM; in [6] it was 14.4 µM. For the same compound, the TGI in assay [7] was 6.19 µM; in [8], 6.12 µM; in assay [9] it was 13.7 µM; in assay [10] it was 15.3 µM.

With `O=C(Nc1cccc(Cl)c1)c1cc2ccccc2cc1O`, the GI50 is 1.24 µM and 0.661 µM in assay [1]; 3.9 µM and 3.79 µM in [2]; 0.415 µM and 2.94 µM in assay [3]; 1.73 µM and 2 µM in [4]; 2.05 µM and 1.76 µM in [5]; 2.12 µM and 3.42 µM in assay [6]. In addition, the GI50 was 2.69 µM and 0.554 µM in assay [7]; 3.6 µM and 3.12 µM in [8]; 2.94 µM and 3.39 µM in assay [9]; 1.03 µM and 0.583 µM in assay [10]. Also, the TGI in assay [1] was 4.15 µM and 2.5 µM; in assay [2], > 100 µM; in assay [3], 4.63 µM and 40.8 µM; in [4], > 100 µM; in assay [5], > 100 µM; in assay [7] it was > 100 µM. The TGI is > 100 µM in assay [8]; > 100 µM in assay [9]; 7.09 µM and 7.92 µM in assay [10].

(Values after PubChem BioAssay (NCI).)
